In PubChem BioAssay (NCI):
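Briefly, cells in 96-well plates were exposed to five compound concentrations for 48 h, and endpoints were estimated by linear interpolation. TGI denotes the concentration required for complete inhibition of growth.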

Key:
Experiment in all cases: DTP human tumour cell line panel, 48 h
MALME-3M melanoma = test system: MALME-3M melanoma
LXFL 529 NSCLC = test system: LXFL 529 NSCLC
NCI-H460 lung = test system: NCI-H460 lung
UO-31 renal = test system: UO-31 renal
DMS 114 small cell lung = test system: DMS 114 small cell lung
HCT-15 colon = test system: HCT-15 colon
DMS 273 small cell lung = test system: DMS 273 small cell lung
MOLT-4 leukemia = test system: MOLT-4 leukemia
HL-60(TB) leukemia = test system: HL-60(TB) leukemia
DLD-1 colon = test system: DLD-1 colon
HCT-116 colon = test system: HCT-116 colon
TK-10 renal = test system: TK-10 renal
SK-MEL-28 melanoma = test system: SK-MEL-28 melanoma
SF-268 CNS = test system: SF-268 CNS
SF-295 CNS = test system: SF-295 CNS
K-562 leukemia = test system: K-562 leukemia
HT29 colon = test system: HT29 colon
OVCAR-4 ovarian = test system: OVCAR-4 ovarian
SNB-78 CNS = test system: SNB-78 CNS
M14 melanoma = test system: M14 melanoma
CCRF-CEM leukemia = test system: CCRF-CEM leukemia
SK-MEL-5 melanoma = test system: SK-MEL-5 melanoma
XF 498 CNS = test system: XF 498 CNS
OVCAR-5 ovarian = test system: OVCAR-5 ovarian
786-0 renal = test system: 786-0 renal
RPMI-8226 leukemia = test system: RPMI-8226 leukemia
UACC-257 melanoma = test system: UACC-257 melanoma
KM12 colon = test system: KM12 colon
ACHN renal = test system: ACHN renal
HOP-18 NSCLC = test system: HOP-18 NSCLC
U251 CNS = test system: U251 CNS
IGROV1 ovarian = test system: IGROV1 ovarian
SN12C renal = test system: SN12C renal
OVCAR-3 ovarian = test system: OVCAR-3 ovarian
A549 NSCLC = test system: A549 NSCLC
COLO 205 colon = test system: COLO 205 colon
HCC-2998 colon = test system: HCC-2998 colon
OVCAR-8 ovarian = test system: OVCAR-8 ovarian
M19-MEL melanoma = test system: M19-MEL melanoma
SNB-75 CNS = test system: SNB-75 CNS
NCI-H23 lung = test system: NCI-H23 lung
SK-MEL-2 melanoma = test system: SK-MEL-2 melanoma
SK-OV-3 ovarian = test system: SK-OV-3 ovarian
HOP-92 NSCLC = test system: HOP-92 NSCLC
NCI-H226 lung = test system: NCI-H226 lung
SF-539 CNS = test system: SF-539 CNS
NCI-H522 lung = test system: NCI-H522 lung
LOX IMVI melanoma = test system: LOX IMVI melanoma
RXF 393 renal = test system: RXF 393 renal
HOP-62 NSCLC = test system: HOP-62 NSCLC
SW-620 colon = test system: SW-620 colon
SNB-19 CNS = test system: SNB-19 CNS
UACC-62 melanoma = test system: UACC-62 melanoma
CAKI-1 renal = test system: CAKI-1 renal
EKVX NSCLC = test system: EKVX NSCLC
KM20L2 colon = test system: KM20L2 colon

Measured: TGI

CSC1(C)CC2C(CC1N1CCOCC1)C2(C)C (stereo not given)
not listed: NCI-H522 lung | LOX IMVI melanoma | RXF 393 renal | HOP-62 NSCLC | SW-620 colon | SNB-19 CNS | UACC-62 melanoma | CAKI-1 renal | EKVX NSCLC | KM20L2 colon
> 100 µM: all other assays above

COC(=O)/C(C#N)=C1\CCC(Nc2cccc(C(F)(F)F)c2)N1C (stereo not given)
not listed: DMS 114 small cell lung | HCT-15 colon | DMS 273 small cell lung | SK-MEL-5 melanoma | COLO 205 colon | M19-MEL melanoma | HOP-92 NSCLC
> 100 µM: all other assays above
